From patent publication US20030059511A1, “Sweetener compositions and uses thereof” (AJINOMOTO CO., INC., priority 1999, published 2003)

Key:
[1] = Taste characteristics in a cola drink (9 items, similarity index vs cola drink containing 10% sucrose); assay type: in vivo, human; details: non-carbonated cola drink, PSE 10%, vs cola drink with 10% sucrose; smaller = closer to sucrose; 8 panelists
Method: The following experiments were performed in the same way as that of Example 2. Instead of aqueous solution, the cola drink of each of derivatives 1 to 9 having a sweetness level equivalent to that of PSE 10% was prepared, and compared with the cola drink containing 10% sucrose. The evaluation method and so on were same as that of Example 2.
When carbon dioxide is blown in the cola drink, the carbonated cola drink is prepared, however, the taste of the cola drink can be compared more easily in that without carbon dioxide. Thus the sensory evaluation of non-carbonated cola drink was performed.
The composition of the cola drink employed was same as that of Example 1.
(§1) The similarity indexes were calculated as those of aqueous solutions. The smaller the similarity index becomes, the better the taste balances, and the closer the taste is to the taste characteristics (quality) of sucrose. The total taste becomes preferable. The similarity indexes of each derivatives are shown as follows. […]
The following experiments were conducted in the same way as that of Example 15. Instead of aqueous solution, the cola drink of each of derivatives 1 to 9 having a sweetness level equivalent to that of PSE 10% was prepared, and compared with the cola drink containing 10% sucrose. All of the evaluation method and so on were same as those of Example 15.
When carbon dioxide is blown in the cola drink, the carbonated cola drink is prepared, however, the taste of the cola drink can be compared more easily in that without carbon dioxide. Thus the non-carbonated cola drink was organoleptically evaluated.
The composition of the cola drink employed was same as that of Example 14.
as §1, with “(quality)of” for “(quality) of”, “each of the” for “each”

[2] = Measurement of the magnification of sweetness intensity in aqueous solution (sensory evaluation against sucrose solutions); assay type: in vivo, human; details: aqueous solution
Method: (§2) An aqueous solution was prepared by diluting derivative 2 to be PSE 10% concentration (15.5 mg/1000 ml=10/6500 g/100 ml), assuming that the intensity of sweetness of derivative 2 was 6500 times that of sucrose. Separately, aqueous sucrose solutions having sucrose concentrations of (a)6.94%, (b)8.33%, (c)10%, (d)12%, and (e)14.4% were prepared. The sensory evaluation was performed by determining which sucrose solution was closest to the solution of derivative 2 in the sweetness intensity. The result of calculation of the average of points of 20 panelists was 2.25 point.
(§3) The intensity of sweetness of the solution of derivative 2 was 8.75% according to the following equation: (10.0−8.33)×0.25+8.33=8.75. Accordingly, the intense sweetness of derivative 2 was 5600 (=8.75/0.00155) times that of sucrose. According to the same experiment, the intensity of sweetness of derivative 1 was 22600 times that of sucrose. Furthermore, the magnification of sweetness intensity of other derivatives (3 to 9) can be determined by the same method.
as §3, with “intensity of” for “intense”
as §2, with “intense” for “intensity of”
The sweetness intensity of the solution of derivative 2 was 8.75% according to the following equation: (10.0−8.33)×0.25+8.33=8.75. Therefore, the magnification of sweetness intensity of derivative 2 was 5600 (=8.75/0.00155) times that of sucrose. When the same experiment was performed, the magnification of sweetness intensity of derivative 1 was 22600 times that of sucrose.

[3] = Taste characteristics in an aqueous solution (9 items, similarity index vs aqueous 10% sucrose solution); assay type: in vivo, human; details: PSE 10%, smaller = closer to sucrose, 8 panelists
Method: The following experiments were performed using the water obtained by ion exchanging and further distilling the water.
An aqueous solution of each of derivatives 1 to 9 having a sweetness level equivalent to that of PSE 10% was prepared, and compared with aqueous 10% sucrose solution with respect to the following 9 items, i.e., “onset of the taste”, “round taste”, “clear taste”, “lingering taste”, “peculiar taste”, “heavy taste”, “bitter taste”, “astringent taste” and “irritation”. The results were determined as 5 levels (−2 point: very weak, −1 point: a little weak, 0 point: same, +1 point: a little strong, +2 point: very strong) by 8 panelists, and the average points were calculated. The sample solutions of the derivatives equivalent to PSE 10%, were prepared by using the magnification of sweetness intensity measured in Example 1, and the amounts of each derivatives to be used were as follows.
Next, the total of the absolute value of the deviation from sucrose in each of the evaluation items consisting of the onset of the taste, the round taste, the clear taste, the lingering taste, the peculiar taste, the heavy taste, the bitter taste, the astringent taste and the irritation was divided by 9 (total number of items) to calculate the similarity (which is referred to as “similarity index”). The smaller the similarity index becomes, the better the taste balances, and the closer the taste is to the taste characteristics (quality) of sucrose. The total taste becomes preferable. The similarity indexes of each derivatives are shown as follows.
To the aqueous solution of derivative 1 having a sweetness level equivalent to that of PSE 10%, salt was added as final concentratins of 0.1%, 0.2% and 0.5% to compare with the aqueous solution of 10% sucrose for by 2 points comparison method (n=8) and evaluate the characteristics of the taste.
The sensory evaluation was performed by the same way as Example 6.
The following experiments were conducted using the water obtained by ion exchanging and further distilling tap water.
An aqueous solution of each of derivatives 1 to 9 having a sweetness level equivalent to that of PES 10% was prepared, and compared with aqueous 10% sucrose solution with respect to 9 items, namely, “the onset of the taste”, “round taste”, “clear taste”, “lingering taste”, “peculiar taste”, “heavy taste”, “bitter taste”, “astringent taste” and “irritation”. The results were determined as 5 levels (−2 point: very weak, −1 point: a little weak, 0 point: same, +1 point: a little strong, +2 point: very strong) by 8 panelists, and the average points were calculated.
Next, the total of the absolute value of the deviation from sucrose in each of the evaluation items consisting of onset of the taste, round taste, clear taste, lingering taste, peculiar taste, heavy taste, bitter taste, astringent taste and irritation was divided by 9 (total number of items) to calculate the similarity (which is refer to as “similarity index”). The smaller the similarity index becomes, the better the taste balances, and the closer the taste is to the taste characteristics (quality) of sucrose. The total taste becomes preferable. The similarity indexes of each of the derivatives are shown as follows.

[4] = Magnification of sweetness intensity in the cola drink (sensory evaluation against sucrose cola drinks); assay type: in vivo, human
Description: And the magnification of sweetness intensity in the cola drink can be also determined by the same method compared to the control solution of cola drink containing 10% sucrose.
The composition of cola drink is as follows.
As for the concentration of the references, the sucrose concentrations of previous (a) to (e) were used. In consequence, the magnification of sweetness intensity in the cola drink of derivative 1 was 22600 times, and that of derivative 2 was 4900 times.
And the magnification of sweetness intensity in the cola drink can be also determined by the same method compared to the reference solution of cola drink containing 10% sucrose.
The components of cola drink is as follows.
As for the concentration of the references, the sucrose concentrations of previous (a) to (e) were used. As the results, the magnification of sweetness intensity in the cola drink of derivative 1 was 22600 times, and that of derivative 2 was 4900 times.
And the magnification of sweetness in the cola drink can be also determined by the same method compared to the control solution of cola drink containing 10% sucrose.
As for the concentration of the references, the sucrose concentrations of previous (a) to (e) were used. As a result, the magnification of sweetness intensity in the cola drink of derivative 1 was 22600 times, and that of derivative 2 was 4900 times.

[5] = cited from earlier work
[6] = Equivalent concentration of bitter taste, sensory evaluation, mixed amino acids (Example 29); assay type: in vivo, human; details: 2% mixed amino acids; addition: Derivative 2 10 ppm, Glycyrrhizin 250 ppm, Sucrose 50000 ppm; no addition 0.105
Method: With respect to the solution produced by adding derivative 1 (the product of the present invention), or adding nothing (no addition; the reference product) in the concentration shown in the following table 4 to the amino acid solution (2% solution of arginine by weight), the sensory evaluation was performed (using 10 panelists), and the equivalent concentration of bitter taste was determined. The results were shown in the table 4, wherein the equivalent concentration of bitter taste was shown in the concentration of aqueous solution of anhydrous caffeine which is a substance of bitter taste.
With respect to the solution produced by adding derivative 2, Glycyrrhizin or sucrose (the product of the present invention), or adding nothing (no addition; the-reference product) to 2% (by weight) solution of the mixed amino acids (leucine:valine:isoleucine=1:0.5:0.5 by weight), the sensory evaluation was performed (using 10 panelists), and the equivalent concentration of bitter taste was determined in the same way as that described in Example 28, and shown in the table 5.

For `COC(=O)[C@H](Cc1ccccc1)NC(=O)[C@H](CC(=O)O)NCCC(C)(C)c1ccc(OC)c(O)c1` [Derivative 3, N-[N-[3-(3-hydroxy-4-methoxyphenyl)-3-methylbutyl]-L-α-aspartyl]-L-phenylalanine 1-methyl ester], the Similarity index [1] was 1.11, the “Amount equivalent to PSE 10%” value [2] was 2.3 mg/1000 ml and the Similarity index [3] was 1.04. The “Amount equivalent to PSE 10%” value [4] was 2.7 mg/1000 ml.

In the case of `COC(=O)[C@H](Cc1ccccc1)NC(=O)[C@H](CC(=O)O)NCCC(C)(C)c1ccc(OC)cc1` [Derivative 5, N-[N-[3-(4-methoxyphenyl)-3-methylbutyl] -L-α-aspartyl] -L-phenylalanine 1-methyl ester], the Similarity index [1] was 1.34, the “Amount equivalent to PSE 10%” value [2] was 11.9 mg/1000 ml and the Similarity index [3] was 1.38. The “Amount equivalent to PSE 10%” value [4] was 12.5 mg/1000 ml.

With `COC(=O)[C@H](Cc1ccccc1)NC(=O)[C@H](CC(=O)O)NCCCc1ccc(OC)cc1O` [Derivative 7, N-[N-[3-(2-hydroxy-4-methoxyphenyl)propyl]-L-α-aspartyl]-L-phenylalanine 1-methyl ester] the Similarity index [1] was 0.90, the “Amount equivalent to PSE 10%” value [2] was 9.0 mg/1000 ml and the Similarity index [3] was 0.86. The “Amount equivalent to PSE 10%” value [4] was 9.4 mg/1000 ml.

For `COC(=O)[C@H](Cc1ccccc1)NC(=O)[C@H](CC(=O)O)NCCCc1ccc(O)cc1O` [Derivative 9, N-[N-[3-(2,4-dihydroxyphenyl)propyl]-L-α-aspartyl]-L-phenylalanine 1-methyl ester], the Similarity index [1] was 1.00, the “Amount equivalent to PSE 10%” value [2] was 12.5 mg/1000 ml and the Similarity index [3] was 0.77. For the same compound, the “Amount equivalent to PSE 10%” value [4] was 13.3 mg/1000 ml.

For `CC1(C)[C@@H](O[C@H]2O[C@H](C(=O)O)[C@@H](O)[C@H](O)[C@H]2O[C@@H]2O[C@H](C(=O)O)[C@@H](O)[C@H](O)[C@H]2O)CC[C@]2(C)[C@H]3C(=O)C=C4[C@@H]5C[C@@](C)(C(=O)O)CC[C@]5(C)CC[C@@]4(C)[C@]3(C)CC[C@@H]12` [Glycyrrhizin], the “magnification used for the sweetness intensity of the another sweetener with a high intense sweetness” value ([5]; values used for calculation in Example 5) is given as 170 times and the “Equivalent concentration of bitter taste” value [6] is given as 0.105 g/100 g.

For `OC[C@H]1O[C@@](CO)(O[C@H]2O[C@H](CO)[C@@H](O)[C@H](O)[C@H]2O)[C@@H](O)[C@@H]1O` [Sucrose], the Similarity index [1] is listed as 0, the “magnification of sweetness intensity (numerical values in brackets)” value ([5]; values used for calculation in Example 17, sucrose = 1) is listed as 1 and the “Equivalent concentration of bitter taste” value [6] is listed as 0.067 g/100 g.
